Test: Compound was evaluated for its ability to displace [3H](+)-pentazocine from sigma receptor in Guinea pig brain

Row | SMILES | Ki [µM]
1 | c1ccc([C@@]2(N3CCCCC3)CC[C@H]3C[C@H]32)cc1 | 1.13
2 | c1ccc([C@]2(N3CCCCC3)CC[C@@H]3C[C@@H]32)cc1 | 7.28
3 | c1ccc([C@]2(N3CCCCC3)CC[C@H]3C[C@H]32)cc1 | 4.45

Reference: BindingDB's records for doi:10.1021/jm00103a008 (National Institute of Diabetes and Digestive and Kidney …, 1993)
